Experiment [1] relates to ULK kinase substrate ATG13 (phospho-Serine 318 ATG13) in A549 cells. The experiment is described as follows: pATG13 ELISA in mutant KRas A549 cells in combination with trametinib. The class given is cell-based. Conditions: A549 (KRAS mutant) human lung cancer cells, with 250 nM trametinib, overnight. Here is the method: (§1) A549 (KRAS mutant) human lung cancer cells (6,000 cells/well) were added to a 384-well tissue-culture treated plate in 50 μL of pre-warmed DMEM medium supplemented with 10% characterized fetal bovine serum (Invitrogen, Carlsbad, Calif.), 100 units/mL penicillin G, and 100 μg/mL streptomycin and allowed to grow overnight at 37° C., 5% CO2, and 95% humidity. The following day, 10 μL of media containing trametinib or DMSO as a control was added to wells. The final concentration of trametinib in wells was 250 nM. A dose response of a test compound (0.6 μL per well) was added. DMSO (0.6 μL) was added to control wells. The plate was briefly shaken to mix wells and then incubated at 37° C. overnight. The next day, the media was aspirated and cells were washed with Dulbecco's Phosphate Buffered Saline (Gibco). Cells were lysed using MPER lysis buffer (Pierce, Rockford, Ill.) containing Halt Phosphatase and Protease Inhibitors (Pierce, Rockford, Ill.) and Phosphatase inhibitor cocktail 2 (Sigma, St. Louis, Mo.) at 4° C. for 10 minutes with shaking.
(§2) Cellular levels of phospho-Serine 318 ATG13 (pATG13) were measured via an ELISA method. Total ATG13 Antibody (Cell Signaling Cat #13273) was used to coat the wells. The plate was incubated at 4° C. overnight and washed with ELISA wash buffer (Biolegend Cat #421601). The wells were then blocked with assay diluent (Biolegend Cat #421203) for 1 hour at room temperature. Plate wells were washed with ELISA wash buffer. Cell lysate was added to wells and incubated at room temperature for 2 hours. Plate wells were washed with ELISA wash buffer. Biotinylated pS318-ATG13 antibody (Rockland Immunochemicals Cat #600-401-C49) was diluted in assay diluent and added to each well and incubated at room temperature for 1 hour. Plate wells were washed with ELISA wash buffer. Streptavidin linked to horseradish peroxidase (Thermo Fisher Cat #21140) was diluted in assay diluent and added to each well and incubated at room temperature for 1 hour. Plate wells were washed with ELISA wash buffer. High sensitivity TMB substrate (Biolegend Cat #421101) was added to each well and incubated at room temperature for 20 minutes. The reaction was stopped with 2N Sulfuric Acid. The plate was analyzed at on a plate reader measuring absorbance at 450 nm and 540 nm (background). Signal was calculated by first subtracting the background absorbance at 540 nm from the absorbance at 450 nm for each well. Next, the background corrected absorbance at 450 nm from blank wells was subtracted from test wells. Data was compared to control wells to determine % ATG13 phosphorylation. GraphPad Prism was used to calculate IC50 values.
(In an ELISA, binding on a coated surface is turned into a signal by an enzyme label.)

Experiment [2] concerns the target T1, ULK1 kinase (Homo sapiens, UniProt O75385).
T1 construct: purchased Eurofins 14-959
T1 sequence (O75385 with tags, fused parts or gaps): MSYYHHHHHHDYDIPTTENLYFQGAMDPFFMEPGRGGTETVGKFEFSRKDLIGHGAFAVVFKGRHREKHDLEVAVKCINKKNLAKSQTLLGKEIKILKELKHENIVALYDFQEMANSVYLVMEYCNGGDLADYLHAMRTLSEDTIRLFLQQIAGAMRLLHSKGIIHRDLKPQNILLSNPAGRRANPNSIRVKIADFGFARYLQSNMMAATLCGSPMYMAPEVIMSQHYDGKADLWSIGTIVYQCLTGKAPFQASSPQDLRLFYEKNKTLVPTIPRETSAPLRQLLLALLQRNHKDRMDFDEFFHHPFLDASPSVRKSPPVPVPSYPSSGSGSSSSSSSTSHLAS
The experiment is described as follows: Biochemical assay for ULK1.2 (coupled pyruvate kinase/lactate dehydrogenase assay). Conditions: 19 nM ULK1 (residues 1-314), myelin basic protein substrate, 1 mM ATP. Here is the method: (§3) Activity of ULK1 kinase was determined spectroscopically using a coupled pyruvate kinase/lactate dehydrogenase assay that continuously monitors the ATP hydrolysis-dependent oxidation of NADH (e.g., Schindler et al. Science (2000) 289: 1938-1942). Assays were conducted in 384-well plates (100 uL final volume) using 19 nM ULK1 (Eurofins CAT #14-959), 0.25 mg/mL myelin basic protein, 1.5 units pyruvate kinase, 2.1 units lactate dehydrogenase, 1 mM phosphoenol pyruvate, 0.28 mM NADH and 1 mM ATP in assay buffer (100 mM Tris, pH 7.5, 15 mM MgCl2, 0.5 mM DTT, 0.1% octyl-glucoside, 0.002% (w/v) BSA, and 0.002% Triton X-100). Inhibition of ULK1 was measured by adding serial diluted test compound (final assay concentration of 1% DMSO). A decrease in absorption at 340 nm was monitored continuously for 6 hours at 30° C. on a multi-mode microplate reader (BioTek). The reaction rate was calculated using the 2-3 h time frame. The reaction rate at each concentration of compound was converted to percent inhibition using controls (i.e. reaction with no test compound and reaction with a known inhibitor) and IC50 values were calculated by fitting a four-parameter sigmoidal curve to the data using Prism (GraphPad software).

Experiment [3] deals with ULK kinase substrate ATG13 (phospho-Serine 318 ATG13) in MiaPaCa-2 cells. Nature of the experiment: pATG13 ELISA in mutant KRas MiaPaCa-2 cells in combination with trametinib. The class given is cell-based. Conditions: MiaPaCa-2 human pancreatic cancer cells, with 250 nM trametinib, overnight. Here is the method: as §1, with “MiaPaCa-2” for “A549 (KRAS mutant)”, “pancreatic” for “lung”, “(10000” for “(6,000”, “G,” for “G, and”, “streptomycin, and 2.5% Horse Serum” for “streptomycin”
as §2

In the next experiment the target is T2, ULK2 kinase (Homo sapiens, UniProt Q8IYT8).
T2 construct: purchased Eurofins 14-772
Nature of the experiment: Biochemical assay for ULK2 (coupled pyruvate kinase/lactate dehydrogenase assay). Conditions: 9.7 nM ULK2 (residues 1-306), myelin basic protein substrate, 1 mM ATP; read-out: ULK2.2. Here is the method:
as §3, with “of ULK2” for “of ULK1”, “using 9.7” for “using 19”, “nM ULK2” for “nM ULK1”, “CAT #14-772),” for “CAT #14-959),”

Experiment [4] deals with T3, ULK1 kinase (Homo sapiens, UniProt O75385, E37A/K38A).
T3 construct: (residues 1-283; ID NO: 2); purchased Beryllium
T3 sequence (O75385 1-283 E37A/K38A): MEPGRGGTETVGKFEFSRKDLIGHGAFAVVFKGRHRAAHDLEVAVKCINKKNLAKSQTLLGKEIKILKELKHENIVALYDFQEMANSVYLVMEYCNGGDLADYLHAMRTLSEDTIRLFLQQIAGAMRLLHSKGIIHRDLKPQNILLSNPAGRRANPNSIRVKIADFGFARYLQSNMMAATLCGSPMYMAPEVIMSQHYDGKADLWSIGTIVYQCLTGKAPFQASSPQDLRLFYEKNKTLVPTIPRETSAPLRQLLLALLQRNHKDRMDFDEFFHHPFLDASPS
The experiment is described as follows: Biochemical assay for ULK1.3 (coupled pyruvate kinase/lactate dehydrogenase assay). Conditions: 0.1 nM ULK1 (residues 1-283), peptide substrate, 1 mM ATP. As for the experimental part: Activity of ULK1 kinase was determined spectroscopically using a coupled pyruvate kinase/lactate dehydrogenase assay that continuously monitors the ATP hydrolysis-dependent oxidation of NADH (e.g., Schindler et al. Science (2000) 289: 1938-1942). Assays were conducted in 384-well plates (100 uL final volume) using 0.1 nM ULK1 (from Beryllium), 0.075 mM peptide substrate (YANWLAASIYLDGKKK (SEQ ID NO: 5)), 1.5 units pyruvate kinase, 2.1 units lactate dehydrogenase, 1 mM phosphoenol pyruvate, 0.28 mM NADH and 1 mM ATP in assay buffer (100 mM Tris, pH 7.5, 15 mM MgCl2, 0.5 mM DTT, 0.004% (w/v) BSA, and 0.004% Triton X-100). Inhibition of ULK1 was measured by adding serial diluted test compound (final assay concentration of 1% DMSO). A decrease in absorption at 340 nm was monitored continuously for 6 hours at 30° C. on a multi-mode microplate reader (BioTek). The reaction rate was calculated using the 2-3 h time frame. The reaction rate at each concentration of compound was converted to percent inhibition using controls (i.e. reaction with no test compound and reaction with a known inhibitor) and IC50 values were calculated using software routines in Prism (GraphPad software).

In the next experiment the target is T4, LRRK2 kinase (Homo sapiens, UniProt Q5S007).
T4 construct: (residues 970-2528; ID NO; 4); purchased Thermo Fisher
Nature of the experiment: Biochemical assay for LRRK2 (coupled pyruvate kinase/lactate dehydrogenase assay). Conditions: 26.4 nM LRRK2 (residues 970-2528), peptide substrate, 1 mM ATP. Here is the method:
Activity of LRRK2 kinase was determined spectroscopically using a coupled pyruvate kinase/lactate dehydrogenase assay that continuously monitors the ATP hydrolysis-dependent oxidation of NADH (e.g., Schindler et al. Science (2000) 289: 1938-1942). Assays were conducted in 384-well plates (100 uL final volume) using 26.4 nM LRRK2 (Thermo Fisher), 0.1 mM peptide substrate (RLGRDKYKTLRQIRQ (SEQ ID NO: 6)), 1.5 units pyruvate kinase, 2.1 units lactate dehydrogenase, 1 mM phosphoenol pyruvate, 0.28 mM NADH and 1 mM ATP in assay buffer (100 mM Tris, pH 7.5, 15 mM MgCl2, 0.5 mM DTT, 0.004% (w/v) BSA, and 0.004% Triton X-100). Inhibition of LRRK2 was measured by adding serial diluted test compound (final assay concentration of 1% DMSO). A decrease in absorption at 340 nm was monitored continuously for 6 hours at 30° C. on a multi-mode microplate reader (BioTek). The reaction rate was calculated using the 2-3 h time frame. The reaction rate at each concentration of compound was converted to percent inhibition using controls (i.e. reaction with no test compound and reaction with a known inhibitor) and IC50 values were calculated using software routines in Prism (GraphPad software).

T4 sequence (Q5S007 with tags, fused parts or gaps): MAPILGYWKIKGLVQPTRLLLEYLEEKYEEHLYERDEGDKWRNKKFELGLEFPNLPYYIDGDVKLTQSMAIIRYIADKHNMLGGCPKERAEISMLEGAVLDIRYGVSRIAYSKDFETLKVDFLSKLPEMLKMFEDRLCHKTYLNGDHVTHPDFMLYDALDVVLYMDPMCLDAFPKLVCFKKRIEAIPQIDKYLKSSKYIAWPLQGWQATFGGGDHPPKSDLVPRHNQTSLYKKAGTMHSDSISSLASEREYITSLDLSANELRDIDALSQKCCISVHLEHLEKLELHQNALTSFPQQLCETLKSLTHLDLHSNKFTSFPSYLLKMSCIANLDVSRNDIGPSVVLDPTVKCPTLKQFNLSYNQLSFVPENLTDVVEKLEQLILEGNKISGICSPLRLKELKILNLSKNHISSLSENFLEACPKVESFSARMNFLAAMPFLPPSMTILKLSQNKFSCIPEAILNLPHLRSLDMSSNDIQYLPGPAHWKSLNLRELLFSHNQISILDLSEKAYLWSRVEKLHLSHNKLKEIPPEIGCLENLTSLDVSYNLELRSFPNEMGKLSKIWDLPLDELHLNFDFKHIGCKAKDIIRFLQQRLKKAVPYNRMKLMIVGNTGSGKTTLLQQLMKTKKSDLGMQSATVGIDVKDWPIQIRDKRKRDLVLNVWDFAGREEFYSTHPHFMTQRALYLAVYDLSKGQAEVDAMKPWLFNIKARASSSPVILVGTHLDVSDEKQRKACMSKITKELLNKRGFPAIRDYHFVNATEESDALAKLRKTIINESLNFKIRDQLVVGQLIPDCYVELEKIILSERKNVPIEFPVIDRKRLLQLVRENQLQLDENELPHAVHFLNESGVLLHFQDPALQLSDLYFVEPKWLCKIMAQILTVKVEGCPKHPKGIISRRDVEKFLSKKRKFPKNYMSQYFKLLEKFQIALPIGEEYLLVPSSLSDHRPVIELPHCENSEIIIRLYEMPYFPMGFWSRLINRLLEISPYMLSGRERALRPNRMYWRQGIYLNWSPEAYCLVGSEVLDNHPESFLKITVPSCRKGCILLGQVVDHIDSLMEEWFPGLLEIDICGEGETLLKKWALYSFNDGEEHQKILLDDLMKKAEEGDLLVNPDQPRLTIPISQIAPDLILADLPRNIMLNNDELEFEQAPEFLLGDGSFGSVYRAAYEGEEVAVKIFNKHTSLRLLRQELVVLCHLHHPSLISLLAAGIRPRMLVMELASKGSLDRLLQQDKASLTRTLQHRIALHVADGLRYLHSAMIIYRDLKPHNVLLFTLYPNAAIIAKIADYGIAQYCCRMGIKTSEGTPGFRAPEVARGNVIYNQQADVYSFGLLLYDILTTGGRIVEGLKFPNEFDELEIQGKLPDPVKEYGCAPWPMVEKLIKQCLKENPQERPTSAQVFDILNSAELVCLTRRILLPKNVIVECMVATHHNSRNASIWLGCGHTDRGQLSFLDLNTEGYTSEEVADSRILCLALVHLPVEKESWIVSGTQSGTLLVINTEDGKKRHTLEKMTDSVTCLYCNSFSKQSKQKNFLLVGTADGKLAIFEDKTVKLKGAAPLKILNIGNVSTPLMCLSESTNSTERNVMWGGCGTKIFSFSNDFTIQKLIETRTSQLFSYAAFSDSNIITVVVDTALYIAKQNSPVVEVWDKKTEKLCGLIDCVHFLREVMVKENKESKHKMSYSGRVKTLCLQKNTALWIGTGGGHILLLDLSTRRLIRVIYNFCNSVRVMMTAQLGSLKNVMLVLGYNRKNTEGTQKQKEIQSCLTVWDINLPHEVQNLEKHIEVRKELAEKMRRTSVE
T2 sequence (Q8IYT8 with tags, fused parts or gaps): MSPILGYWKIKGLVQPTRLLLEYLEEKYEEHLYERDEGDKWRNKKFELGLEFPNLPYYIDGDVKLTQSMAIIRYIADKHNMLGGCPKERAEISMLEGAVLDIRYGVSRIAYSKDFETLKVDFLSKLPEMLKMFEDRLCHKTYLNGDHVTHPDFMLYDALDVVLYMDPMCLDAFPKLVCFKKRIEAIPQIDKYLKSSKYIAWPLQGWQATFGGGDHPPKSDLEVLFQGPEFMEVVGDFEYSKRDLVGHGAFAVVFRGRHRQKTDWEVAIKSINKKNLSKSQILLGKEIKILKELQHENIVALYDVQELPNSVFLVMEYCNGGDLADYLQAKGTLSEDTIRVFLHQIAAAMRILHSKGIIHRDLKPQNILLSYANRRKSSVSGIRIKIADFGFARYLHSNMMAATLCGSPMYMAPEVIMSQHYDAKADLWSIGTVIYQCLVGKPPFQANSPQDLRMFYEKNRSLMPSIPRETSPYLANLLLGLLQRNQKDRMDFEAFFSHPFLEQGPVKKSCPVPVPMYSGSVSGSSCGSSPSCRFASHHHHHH

Regarding `CCc1cc(N2CCN(C)CC2)ccc1Nc1ncc(C(F)(F)F)c(NCCCNC(=O)C2CCC2)n1` [Example 1, N-(3-((2-((2-ethyl-4-(4-methylpiperazin-1-yl)phenyl)amino)-5-(trifluoromethyl)pyrimidin-4-yl)amino)propyl)cyclobutanecarboxamide], the IC50 in experiment [1] lay within 0.1 to 0.3 µM; at ULK1 kinase [2], 0.001 to 0.025 µM; in experiment [3], 0.01 to 0.1 µM; at ULK2 kinase it was 0.025 to 0.1 µM.
`CCc1cc(N2CCN(C)CC2)ccc1Nc1ncc(Br)c(NCCCNC(=O)C2CCC2)n1` [Example 7]: the IC50 lay in the range of 0.025 to 0.1 µM on ULK1 kinase [4], 0.1 to 0.5 µM on ULK2 kinase and 0.1 to 0.3 µM on LRRK2 kinase.
The corresponding values for `CN1CCN(c2ccc(Nc3ncc(Br)c(NCCCNC(=O)C4CCC4)n3)c(C3CC3)c2)CC1` [Example 9] are 0.025 to 0.1 µM, 0.1 to 0.5 µM and 0.1 to 0.3 µM.
For `CC(C)Oc1cc(N2CCN(C)CC2)ccc1Nc1ncc(Cl)c(NCCCNC(=O)C2CCC2)n1` [Example 10], the IC50 lay in the range of 0.5 to 20 µM against ULK1 kinase [4], 0.5 to 20 µM on ULK2 kinase and 0.1 to 0.3 µM on LRRK2 kinase.
`CCc1cc(N2CCN(C)CC2)ccc1Nc1ncc(C2CC2)c(NCCCNC(=O)C2CCC2)n1` [Example 19]: the IC50 lay in the range of 0.5 to 20 µM at ULK1 kinase [4], 0.5 to 20 µM on ULK2 kinase and 0.6 to 20 µM on LRRK2 kinase.
Consider `Cc1nn(C(C)(C)C(N)=O)cc1Nc1ncc(C(F)(F)F)c(NCCCNC(=O)C2CCC2)n1` [Example 26, N-(3-((2-((1-(1-amino-2-methyl-1-oxopropan-2-yl)-3-methyl-1H-pyrazol-4-yl)amino)-5-(trifluoromethyl)pyrimidin-4-yl)amino)propyl)cyclobutanecarboxamide], for which the IC50 is 0.5 to 20 µM against ULK1 kinase [4], 0.5 to 20 µM on ULK2 kinase and 0.001 to 0.1 µM against LRRK2 kinase.
Take `Cc1nn(C(C)(C)C#N)cc1Nc1ncc(C(F)(F)F)c(NCCCNC(=O)C2CCC2)n1` [Example 30, N-(3-((2-((1-(2-cyanopropan-2-yl)-3-methyl-1H-pyrazol-4-yl)amino)-5-(trifluoromethyl)pyrimidin-4-yl)amino)propyl)cyclobutanecarboxamide]: the IC50 against ULK1 kinase [4] was 0.1 to 0.5 µM; on ULK2 kinase, 0.5 to 20 µM; against LRRK2 kinase it was 0.001 to 0.1 µM.

The record behind these values is patent US11590134B2, “Aminopyrimidine amide autophagy inhibitors and methods of use thereof” (Deciphera Pharmaceuticals, LLC, priority 2019, dated 2023).
